Values after ≈ are worked out from the molar mass of the structure shown. Where two headings read alike, the source gives them in different places.
Key:
Experiment in all cases: microbe, parasite or virus in culture
K. pneumoniae = details: Klebsiella pneumoniae
How it was run: (§1)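 Broth microdilution in MHB, 2-fold 12-point series from 128 or 64 down to 0.06 or 0.03 μg mL^−1, 5 × 10^5 CFU mL^−1. Extra runs in CAMHB per CLSI and in MHB with 1% agarose; n ≥ 6.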

P. aeruginosa = details: Pseudomonas aeruginosa
How it was run: as §1

[1] = test system: A. baumannii clinical isolates
Description: The in vitro activity of AA139 and comparator antimicrobials was determined in two panels of clinical isolates of E. coli, K. pneumoniae, P. aeruginosa, and A. baumannii (Supplementary Table 3), and MIC90 presented. The US panel consisted of 331 clinical isolates from 2010 to 2012. It was tested by BMD in accordance with the CLSI guidelines (M07-A9, 2012)[39]. […] AA139 was diluted in 0.01% acetic acid/0.1% bovine serum albumin. Sterile polypropylene culture cluster round-bottom 96-well plates (Costar # 3879) were used for testing. The worldwide panel consisted of 445 clinical isolates from 2011 to 2013, geographically divided into Asia, Europe, North America, and Rest of World (Middle East, Latin America, Africa, and South Pacific) with each region representing ~25% of the isolates. It was tested by broth microdilution in accordance with the CLSI guidelines (M07-A9, 2012)[39]. […] The test media was CAMHB (Becton Dickinson). AA139 and polymyxin B were tested in media supplemented with 0.002% Tween 80 (Calbiochem). MIC90 values were calculated for all or subsets of the isolates. MIC correlation between AA139 and colistin was analyzed with data from the US panel.

[2] = A. baumannii, worldwide isolates 2011-2013, n = 108

## C[C@H]1COc2c(N3CCN(C)CC3)c(F)cc3c(=O)c(C(=O)O)cn1c23 [LEV, levofloxacin, reference compound]
K. pneumoniae; read-out: MIC, broth microdilution, K. pneumoniae 3010 spontaneous mutant, AA139 selection 4X, plate 1, colony 1, drug-free passage 1
  MIC: 0.06 µg/mL (≈ 0.166 µM)
K. pneumoniae; read-out: MIC, broth microdilution, K. pneumoniae 3010 spontaneous mutant, AA139 selection 4X, plate 1, colony 1, drug-free passage 5
  MIC: 0.06 µg/mL (≈ 0.166 µM)
K. pneumoniae; read-out: MIC, broth microdilution, K. pneumoniae 3010 spontaneous mutant, AA139 selection 8X, plate 1, colony 1, drug-free passage 1
  MIC: 0.06 µg/mL (≈ 0.166 µM)
K. pneumoniae; read-out: MIC, broth microdilution, K. pneumoniae 3010 spontaneous mutant, AA139 selection 8X, plate 1, colony 1, drug-free passage 5
  MIC: 0.06 µg/mL (≈ 0.166 µM)
P. aeruginosa; ATCC27853, read-out: MIC, broth microdilution, P. aeruginosa ATCC 27853 spontaneous mutant, AA139 selection 4X, plate 1, colony 2, drug-free passage 1
  MIC: 2 µg/mL (≈ 5.53 µM)
P. aeruginosa; ATCC27853, read-out: MIC, broth microdilution, P. aeruginosa ATCC 27853 spontaneous mutant, AA139 selection 4X, plate 1, colony 3, drug-free passage 5
  MIC: 2 µg/mL (≈ 5.53 µM)
P. aeruginosa; ATCC27853, read-out: MIC, broth microdilution, P. aeruginosa ATCC 27853 spontaneous mutant, AA139 selection 4X, plate 1, colony 4, drug-free passage 1
  MIC: 2 µg/mL (≈ 5.53 µM)
P. aeruginosa; ATCC27853, read-out: MIC, broth microdilution, P. aeruginosa ATCC 27853 spontaneous mutant, AA139 selection 4X, plate 1, colony 5, drug-free passage 1
  MIC: 2 µg/mL (≈ 5.53 µM)
P. aeruginosa; ATCC27853, read-out: MIC, broth microdilution, P. aeruginosa ATCC 27853 spontaneous mutant, AA139 selection 4X, plate 1, colony 5, drug-free passage 5
  MIC: 2 µg/mL (≈ 5.53 µM)
P. aeruginosa; ATCC27853, read-out: MIC, broth microdilution, P. aeruginosa ATCC 27853 spontaneous mutant, AA139 selection 4X, plate 1, colony 6, drug-free passage 1
  MIC: 2 µg/mL (≈ 5.53 µM)
P. aeruginosa; ATCC27853, read-out: MIC, broth microdilution, P. aeruginosa ATCC 27853 spontaneous mutant, AA139 selection 4X, plate 2, colony 1, drug-free passage 1
  MIC: 2 µg/mL (≈ 5.53 µM)
P. aeruginosa; ATCC27853, read-out: MIC, broth microdilution, P. aeruginosa ATCC 27853 spontaneous mutant, AA139 selection 4X, plate 2, colony 2, drug-free passage 1
  MIC: 2 µg/mL (≈ 5.53 µM)
P. aeruginosa; ATCC27853, read-out: MIC, broth microdilution, P. aeruginosa ATCC 27853 spontaneous mutant, AA139 selection 8X, plate 1, colony 1, drug-free passage 5
  MIC: 2 µg/mL (≈ 5.53 µM)
P. aeruginosa; ATCC27853, read-out: MIC, broth microdilution, P. aeruginosa ATCC 27853 spontaneous mutant, AA139 selection 8X, plate 1, colony 2, drug-free passage 1
  MIC: 2 µg/mL (≈ 5.53 µM)
P. aeruginosa; read-out: MIC, broth microdilution, P. aeruginosa UNT 138-1 spontaneous mutant, AA139 selection 4X, plate 1, colony 1, drug-free passage 1
  MIC: 2 µg/mL (≈ 5.53 µM)
[1]; [2]
  MIC50: 16 µg/mL (≈ 44.3 µM)
  MIC90: > 32 µg/mL
[1]; A. baumannii, worldwide isolates 2011-2013, n = 108, count of isolates at MIC 0.03
  Number of isolates with MIC 0.03 (MIC frequency distribution): 1
[1]; A. baumannii, worldwide isolates 2011-2013, n = 108, count of isolates at MIC 0.06
  Number of isolates with MIC 0.06 (MIC frequency distribution): 4
[1]; A. baumannii, worldwide isolates 2011-2013, n = 108, count of isolates at MIC 0.125
  Number of isolates with MIC 0.125 (MIC frequency distribution): 8
[1]; A. baumannii, worldwide isolates 2011-2013, n = 108, count of isolates at MIC 0.25
  Number of isolates with MIC 0.25 (MIC frequency distribution): 2
[1]; A. baumannii, worldwide isolates 2011-2013, n = 108, count of isolates at MIC 0.5
  Number of isolates with MIC 0.5 (MIC frequency distribution): 3
[1]; A. baumannii, worldwide isolates 2011-2013, n = 108, count of isolates at MIC 1
  Number of isolates with MIC 1 (MIC frequency distribution): 0
[1]; A. baumannii, worldwide isolates 2011-2013, n = 108, count of isolates at MIC 2
  Number of isolates with MIC 2 (MIC frequency distribution): 0
[1]; A. baumannii, worldwide isolates 2011-2013, n = 108, count of isolates at MIC 4
  Number of isolates with MIC 4 (MIC frequency distribution): 6
[1]; A. baumannii, worldwide isolates 2011-2013, n = 108, count of isolates at MIC 8
  Number of isolates with MIC 8 (MIC frequency distribution): 22
[1]; A. baumannii, worldwide isolates 2011-2013, n = 108, count of isolates at MIC 16
  Number of isolates with MIC 16 (MIC frequency distribution): 20
[1]; A. baumannii, worldwide isolates 2011-2013, n = 108, count of isolates at MIC 32
  Number of isolates with MIC 32 (MIC frequency distribution): 19
[1]; A. baumannii, worldwide isolates 2011-2013, n = 108, count of isolates at MIC 64
  Number of isolates with MIC 64 (MIC frequency distribution): 0
[1]; A. baumannii, worldwide isolates 2011-2013, n = 108, count of isolates at MIC 128
  Number of isolates with MIC 128 (MIC frequency distribution): 0
[1]; A. baumannii, worldwide isolates 2011-2013, n = 108, count of isolates at MIC >16
  Number of isolates with MIC >16 (MIC frequency distribution): 0
[1]; A. baumannii, worldwide isolates 2011-2013, n = 108, count of isolates at MIC >32
  Number of isolates with MIC >32 (MIC frequency distribution): 23
[1]; A. baumannii, worldwide isolates 2011-2013, n = 108, count of isolates at MIC >128
  Number of isolates with MIC >128 (MIC frequency distribution): 0
[1]; A. baumannii, worldwide isolates 2011-2013, n = 108, count of isolates at MIC ≤0.015
  Number of isolates with MIC ≤0.015 (MIC frequency distribution): 0
[1]; Acinetobacter baumannii
  MIC90: > 32 µg/mL

— paper PMC7311426, “An amphipathic peptide with antibiotic activity against multidrug-resistant Gram-negative bacteria” (Nature Communications, 2020)
